Results: ChEMBL document CHEMBL1201862, “PubChem BioAssay data set” (2004)
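All cell lines were grown in 96-well plates and treated with compound for 48 hours. GI50 is the concentration that inhibits growth by half.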 The source made the active and inactive calls. Rule as the data show it: active = GI50 up to about 1.1 µM and inactive = higher.

Legend:
Assay in all cases: DTP human tumour cell line panel, 48 h
IGROV-1 = tested on: IGROV-1
MDA-MB-435 = tested on: MDA-MB-435
KM12 = tested on: KM12
T47D = tested on: T47D
TK-10 = tested on: TK-10
OVCAR-5 = tested on: OVCAR-5
NCI-H460 = tested on: NCI-H460
HOP-92 = tested on: HOP-92
LXFL 529 = tested on: LXFL 529
LOX IMVI = tested on: LOX IMVI
K562 = tested on: K562
SR = tested on: SR
MDA-MB-231 = tested on: MDA-MB-231
SNB-75 = tested on: SNB-75
RPMI-8226 = tested on: RPMI-8226
ACHN = tested on: ACHN
PC-3 = tested on: PC-3
HCC 2998 = tested on: HCC 2998
M14 = tested on: M14
NCI-H522 = tested on: NCI-H522
NCI-H23 = tested on: NCI-H23
SNB-78 = tested on: SNB-78
SF-295 = tested on: SF-295
CAKI-1 = tested on: CAKI-1
RXF 631 = tested on: RXF 631
SF-539 = tested on: SF-539
SK-MEL-28 = tested on: SK-MEL-28
A549 = tested on: A549
DMS-273 = tested on: DMS-273
OVCAR-8 = tested on: OVCAR-8
UACC-257 = tested on: UACC-257
MDA-N = tested on: MDA-N
Malme-3M = tested on: Malme-3M
A498 = tested on: A498
MOLT-4 = tested on: MOLT-4
U-251 = tested on: U-251
786-0 = tested on: 786-0
SF-268 = tested on: SF-268
Hs-578T = tested on: Hs-578T
OVCAR-3 = tested on: OVCAR-3
DU-145 = tested on: DU-145
COLO 205 = tested on: COLO 205
HT-29 = tested on: HT-29
SK-OV-3 = tested on: SK-OV-3
SK-MEL-5 = tested on: SK-MEL-5
HOP-62 = tested on: HOP-62
RXF 393 = tested on: RXF 393
M19-MEL = tested on: M19-MEL
HL-60 = tested on: HL-60
SNB-19 = tested on: SNB-19
UO-31 = tested on: UO-31
EKVX = tested on: EKVX
BT-549 = tested on: BT-549
HCT-15 = tested on: HCT-15
NCI-H226 = tested on: NCI-H226
DLD-1 = tested on: DLD-1
SN12C = tested on: SN12C
DMS-114 = tested on: DMS-114
XF498 = tested on: XF498
UACC-62 = tested on: UACC-62
SK-MEL-2 = tested on: SK-MEL-2
CCRF-CEM = tested on: CCRF-CEM
SW-620 = tested on: SW-620
NCI/ADR-RES = tested on: NCI/ADR-RES
OVCAR-4 = tested on: OVCAR-4
HCT-116 = tested on: HCT-116
KM-20L2 = tested on: KM-20L2

## C=C1C(=O)C=C2C=C3C(=O)C(C)(C)C[C@]3(O)C12C (some centres not stated)
IGROV-1
  GI50: 18 µM (inactive)
MDA-MB-435
  GI50: 12.4 µM (inactive)
KM12
  GI50: 16.2 µM (inactive)
T47D
  GI50: 2.15 µM (inactive)
TK-10
  GI50: 1.84 µM (inactive)
OVCAR-5
  GI50: 9.55 µM (inactive)
NCI-H460
  GI50: 18.9 µM (inactive)
HOP-92
  GI50: 1.59 µM (inactive)
LXFL 529
  GI50: 1.26 µM (inactive)
LOX IMVI
  GI50: 5.14 µM (inactive)
K562
  GI50: 0.684 µM (active)
SR
  GI50: 0.452 µM (active)
MDA-MB-231
  GI50: 2.36 µM (inactive)
SNB-75
  GI50: 14.2 µM (inactive)
RPMI-8226
  GI50: 1.21 µM (inactive)
ACHN
  GI50: 2.23 µM (inactive)
PC-3
  GI50: 3.14 µM (inactive)
HCC 2998
  GI50: 19.7 µM (inactive)
M14
  GI50: 1.73 µM (inactive)
NCI-H522
  GI50: 1.61 µM (inactive)
NCI-H23
  GI50: 4.81 µM (inactive)
SNB-78
  GI50: 7.74 µM (inactive)
SF-295
  GI50: 19 µM (inactive)
CAKI-1
  GI50: 1.82 µM (inactive)
RXF 631
  GI50: 16.4 µM (inactive)
SF-539
  GI50: > 43.2 µM (inactive)
SK-MEL-28
  GI50: 2.52 µM (inactive)
A549
  GI50: 20 µM (inactive)
DMS-273
  GI50: 5.92 µM (inactive)
OVCAR-8
  GI50: 8.57 µM (inactive)
UACC-257
  GI50: 2.93 µM (inactive)
MDA-N
  GI50: 3.76 µM (inactive)
Malme-3M
  GI50: 1.83 µM (inactive)
A498
  GI50: 12.8 µM (inactive)
MOLT-4
  GI50: 0.57 µM (active)
U-251
  GI50: 17.9 µM (inactive)
786-0
  GI50: 1.81 µM (inactive)
SF-268
  GI50: 5.65 µM (inactive)
Hs-578T
  GI50: 8.22 µM (inactive)
OVCAR-3
  GI50: 1.8 µM (inactive)
DU-145
  GI50: 18.8 µM (inactive)
COLO 205
  GI50: 1.5 µM (inactive)
HT-29
  GI50: 3.27 µM (inactive)
SK-OV-3
  GI50: 19.3 µM (inactive)
SK-MEL-5
  GI50: 6.62 µM (inactive)
HOP-62
  GI50: 22.5 µM (inactive)
RXF 393
  GI50: 1.48 µM (inactive)
M19-MEL
  GI50: 5.68 µM (inactive)
HL-60
  GI50: 0.497 µM (active)
SNB-19
  GI50: 29.5 µM (inactive)
UO-31
  GI50: 7.11 µM (inactive)
EKVX
  GI50: 16.1 µM (inactive)
BT-549
  GI50: 1.54 µM (inactive)
HCT-15
  GI50: 2.25 µM
NCI-H226
  GI50: 22.1 µM (inactive)
DLD-1
  GI50: 1.65 µM (inactive)
SN12C
  GI50: 9.4 µM (inactive)
DMS-114
  GI50: 1.1 µM (active)
XF498
  GI50: 1.85 µM (inactive)
UACC-62
  GI50: 8.39 µM (inactive)
SK-MEL-2
  GI50: 17.8 µM (inactive)
CCRF-CEM
  GI50: 0.131 µM (active)
SW-620
  GI50: 0.968 µM (active)
NCI/ADR-RES
  GI50: 28.8 µM (inactive)
OVCAR-4
  GI50: 3.43 µM (inactive)
HCT-116
  GI50: 3.97 µM (inactive)

## O=C1C2C(C(=O)N1Cc1ccccc1)N(Cc1ccccc1)C(=O)N2Cc1ccccc1 (configuration not stated)
IGROV-1
  GI50: > 100 µM (inactive)
KM12
  GI50: > 100 µM (inactive)
TK-10
  GI50: > 100 µM (inactive)
OVCAR-5
  GI50: > 100 µM (inactive)
NCI-H460
  GI50: > 100 µM (inactive)
HOP-92
  GI50: > 100 µM (inactive)
KM-20L2
  GI50: > 100 µM (inactive)
LXFL 529
  GI50: > 100 µM (inactive)
LOX IMVI
  GI50: > 100 µM (inactive)
K562
  GI50: > 100 µM (inactive)
SR
  GI50: > 100 µM (inactive)
SNB-75
  GI50: 59.3 µM (inactive)
RPMI-8226
  GI50: > 100 µM (inactive)
ACHN
  GI50: > 100 µM (inactive)
HCC 2998
  GI50: > 100 µM (inactive)
M14
  GI50: > 100 µM (inactive)
NCI-H522
  GI50: > 100 µM (inactive)
NCI-H23
  GI50: > 100 µM (inactive)
SNB-78
  GI50: > 100 µM (inactive)
SF-295
  GI50: > 100 µM (inactive)
CAKI-1
  GI50: > 100 µM (inactive)
RXF 631
  GI50: > 100 µM (inactive)
SF-539
  GI50: > 100 µM (inactive)
SK-MEL-28
  GI50: > 100 µM (inactive)
A549
  GI50: > 100 µM (inactive)
OVCAR-8
  GI50: > 100 µM (inactive)
UACC-257
  GI50: > 100 µM (inactive)
Malme-3M
  GI50: > 100 µM (inactive)
A498
  GI50: > 100 µM (inactive)
MOLT-4
  GI50: > 100 µM (inactive)
U-251
  GI50: > 100 µM (inactive)
786-0
  GI50: > 100 µM (inactive)
SF-268
  GI50: > 100 µM (inactive)
OVCAR-3
  GI50: > 100 µM (inactive)
COLO 205
  GI50: > 100 µM (inactive)
HT-29
  GI50: > 100 µM (inactive)
SK-OV-3
  GI50: > 100 µM (inactive)
SK-MEL-5
  GI50: > 100 µM (inactive)
HOP-62
  GI50: > 100 µM (inactive)
RXF 393
  GI50: > 100 µM (inactive)
M19-MEL
  GI50: > 100 µM (inactive)
HL-60
  GI50: > 100 µM (inactive)
SNB-19
  GI50: > 100 µM (inactive)
UO-31
  GI50: > 100 µM (inactive)
EKVX
  GI50: > 100 µM (inactive)
HCT-15
  GI50: > 100 µM
NCI-H226
  GI50: > 100 µM (inactive)
DLD-1
  GI50: > 100 µM (inactive)
SN12C
  GI50: > 100 µM (inactive)
DMS-114
  GI50: > 100 µM (inactive)
XF498
  GI50: > 100 µM (inactive)
UACC-62
  GI50: > 100 µM (inactive)
CCRF-CEM
  GI50: > 100 µM (inactive)
SW-620
  GI50: > 100 µM (inactive)
OVCAR-4
  GI50: > 100 µM (inactive)
HCT-116
  GI50: > 100 µM (inactive)
